The subject of test [1] is cocklebur. Kind of test: preemergence herbicidal activity on cocklebur. The format is in vivo, Xanthium strumarium L. The settings on record: Xanthium strumarium, pre-emergence, 0.3 Kg/Ha, after 12-17 days, read-out: PREEMERGENCE HERBICIDAL ACTIVITY (% CONTROL) XANPE. How it is done: (§1) The (oxaalkyl)phenyl-substituted heterocycles of this invention were tested for pre- and postemergence herbicidal activity using a variety of crops and weeds. The test plants included soybean (Glycine max var. Winchester),field corn (Zea mays var. Pioneer 3732), wheat (Triticum aestivum var. Lew), morningglory (Ipomea lacunosa or Ipomea hederacea), […] (Abutilon theophrasti), green foxtail (Setaria viridis), Johnsongrass (Sorghum halepense), blackgrass (Aloepecurus myosuroides), common chickweed (Stellaria media), and common cocklebur (Xanthium strumarium L.).
(§2) For preemergence testing, two disposable fiber flats (8 cm×15 cm×25 cm) for each rate of application of each candidate herbicide were filled to an approximate depth of 6.5 cm with steam-sterilized sandy loam soil. The soil was leveled and impressed with a template to provide five evenly spaced furrows 13 cm long and 0.5 cm deep in each flat. Seeds of soybean, wheat, corn, green foxtail, and johnsongrass were planted in the furrows of the first flat, and seeds of velvetleaf, morningglory, common chickweed, cocklebur, and blackgrass were planted in the furrows of the second flat. The five-row template was employed to firmly press the seeds into place. A topping soil of equal portions of sand and sandy loam soil was placed uniformly on top of each flat to a depth of approximately 0.5 cm. Flats for postemergence testing were prepared in the same manner except that they were planted 9-14 days prior to the preemergence flats and were placed in a greenhouse and watered, thus allowing the seeds to germinate and the foliage to develop.
(§3) In both pre- and postemergence tests, a stock solution of the candidate herbicide was prepared by dissolving 0.27 g of the compound in 20 mL of water/acetone (50/50) containing 0.5% v/v sorbitan monolaurate. For an application rate of 3000 g/ha of herbicide a 10 mL portion of the stock solution was diluted with water/acetone (50/50) to 45 mL.
(§4) The preemergence flats were initially subjected to a light water spray. The four flats were placed two by two along a conveyor belt (i.e., the two preemergence followed by the two postemergence flats). The conveyor belt fed under a spray nozzle mounted about ten inches above the postemergent foliage. The preemergent flats were elevated on the belt so that the soil surface was at the same level below the spray nozzle as the foliage canopy of the postemergent plants. The spray of herbicidal solution was commenced and once stabilized, the flats were passed under the spray at a speed to receive a coverage equivalent of 1000 L/ha. At this coverage the application rates are those shown in the above table for the individual herbicidal solutions. The preemergence flats were watered immediately thereafter, placed in the greenhouse and watered regularly at the soil surface. The postemergence flats were immediately placed in the green-house and not watered until 24 hours after treatment with the test solution. Thereafter they were regularly watered at ground level. After 12-17 days the plants were examined and the phytotoxicity data were recorded.
(§5) Phytotoxicity data were taken as percent control. Percent control was by a method similar to the 0 to 1 00 rating system disclosed in "Research Methods in Weed Science," 2nd ed., B. Truelove, Ed.; Southern Weed Science Society; Auburn University, Auburn, Ala., 1977.

Test [2] deals with corn. Put plainly: preemergence herbicidal activity on corn. In kind it is in vivo, Zea mays var. Pioneer 3732. The settings on record: Zea mays, pre-emergence, 0.3 Kg/Ha, after 12-17 days, read-out: PREEMERGENCE HERBICIDAL ACTIVITY (% CONTROL) CRN. The procedure: as §1, §2, §3, §4, §5
Test [3] deals with chickweed. Kind of test: postemergence herbicidal activity on chickweed. The settings on record: Stellaria media, post-emergence, 0.3 Kg/Ha, after 12-17 days, read-out: POSTEMERGENCE HERBICIDAL ACTIVITY (% CONTROL) STEME. The format is in vivo. How it is done:
as §1, §2, §3, §4, §5

Test [4] has as its system wheat. Kind of test: preemergence herbicidal activity on wheat. The format is in vivo, Triticum aestivum var. Lew. The settings on record: Triticum aestivum, pre-emergence, 0.3 Kg/Ha, after 12-17 days, read-out: PREEMERGENCE HERBICIDAL ACTIVITY (% CONTROL) WHT. The procedure:
as §1, §2, §3, §4, §5

Test [5] deals with wheat. Put plainly: postemergence herbicidal activity on wheat. The settings on record: Triticum aestivum, post-emergence, 0.3 Kg/Ha, after 12-17 days, read-out: POSTEMERGENCE HERBICIDAL ACTIVITY (% CONTROL) WHT. The format is in vivo, Triticum aestivum var. Lew. How it is done:
as §1, §2, §3, §4, §5

The test system of test [6] is velvetleaf. Kind of test: postemergence herbicidal activity on velvetleaf. The format is in vivo. The settings on record: Abutilon theophrasti, post-emergence, 0.3 Kg/Ha, after 12-17 days, read-out: POSTEMERGENCE HERBICIDAL ACTIVITY (% CONTROL) ABUTH. How it is done:
as §1, §2, §3, §4, §5

Test [7] relates to johnsongrass. Kind of test: preemergence herbicidal activity on johnsongrass. In kind it is in vivo. The settings on record: Sorghum halepense, pre-emergence, 0.3 Kg/Ha, after 12-17 days, read-out: PREEMERGENCE HERBICIDAL ACTIVITY (% CONTROL) SORHA. The procedure:
as §1, §2, §3, §4, §5

For test [8], the system named is chickweed. Kind of test: preemergence herbicidal activity on chickweed. The settings on record: Stellaria media, pre-emergence, 0.3 Kg/Ha, after 12-17 days, read-out: PREEMERGENCE HERBICIDAL ACTIVITY (% CONTROL) STEME. The format is in vivo. How it is done: as §1, §2, §3, §4, §5
Test [9] has as its system morningglory. Kind of test: preemergence herbicidal activity on morningglory. In kind it is in vivo, Ipomea lacunosa or Ipomea hederacea. The settings on record: Ipomoea, pre-emergence, 0.3 Kg/Ha, after 12-17 days, read-out: PREEMERGENCE HERBICIDAL ACTIVITY (% CONTROL) IPOSS. The procedure: as §1, §2, §3, §4, §5
In test [10] the test system is soybean. Put plainly: preemergence herbicidal activity on soybean. The format is in vivo, Glycine max var. Winchester. The settings on record: Glycine max, pre-emergence, 0.3 Kg/Ha, after 12-17 days, read-out: PREEMERGENCE HERBICIDAL ACTIVITY (% CONTROL) SOY. How it is done: as §1, §2, §3, §4, §5
Test [11] has as its system green foxtail. Put plainly: postemergence herbicidal activity on green foxtail. The format is in vivo. The settings on record: Setaria viridis, post-emergence, 0.3 Kg/Ha, after 12-17 days, read-out: POSTEMERGENCE HERBICIDAL ACTIVITY (% CONTROL) SETVI. How it is done: as §1, §2, §3, §4, §5
For test [12], the system named is cocklebur. Put plainly: postemergence herbicidal activity on cocklebur. The format is in vivo, Xanthium strumarium L. The settings on record: Xanthium strumarium, post-emergence, 0.3 Kg/Ha, after 12-17 days, read-out: POSTEMERGENCE HERBICIDAL ACTIVITY (% CONTROL) XANPE. The procedure:
as §1, §2, §3, §4, §5

For test [13], the system named is johnsongrass. Put plainly: postemergence herbicidal activity on johnsongrass. The format is in vivo. The settings on record: Sorghum halepense, post-emergence, 0.3 Kg/Ha, after 12-17 days, read-out: POSTEMERGENCE HERBICIDAL ACTIVITY (% CONTROL) SORHA. How it is done:
as §1, §2, §3, §4, §5

For test [14], the system named is corn. Put plainly: postemergence herbicidal activity on corn. The format is in vivo, Zea mays var. Pioneer 3732. The settings on record: Zea mays, post-emergence, 0.3 Kg/Ha, after 12-17 days, read-out: POSTEMERGENCE HERBICIDAL ACTIVITY (% CONTROL) CRN. The procedure:
as §1, §2, §3, §4, §5

For test [15], the system named is soybean. Kind of test: postemergence herbicidal activity on soybean. The format is in vivo, Glycine max var. Winchester. The settings on record: Glycine max, post-emergence, 0.3 Kg/Ha, after 12-17 days, read-out: POSTEMERGENCE HERBICIDAL ACTIVITY (% CONTROL) SOY. The procedure: as §1, §2, §3, §4, §5
Test [16] has as its system morningglory. Put plainly: postemergence herbicidal activity on morningglory. In kind it is in vivo, Ipomea lacunosa or Ipomea hederacea. The settings on record: Ipomoea, post-emergence, 0.3 Kg/Ha, after 12-17 days, read-out: POSTEMERGENCE HERBICIDAL ACTIVITY (% CONTROL) IPOSS. The procedure:
as §1, §2, §3, §4, §5

For test [17], the system named is velvetleaf. Kind of test: preemergence herbicidal activity on velvetleaf. The settings on record: Abutilon theophrasti, pre-emergence, 0.3 Kg/Ha, after 12-17 days, read-out: PREEMERGENCE HERBICIDAL ACTIVITY (% CONTROL) ABUTH. In kind it is in vivo. How it is done: as §1, §2, §3, §4, §5
Test [18] has as its system green foxtail. Put plainly: preemergence herbicidal activity on green foxtail. The format is in vivo. The settings on record: Setaria viridis, pre-emergence, 0.3 Kg/Ha, after 12-17 days, read-out: PREEMERGENCE HERBICIDAL ACTIVITY (% CONTROL) SETVI. How it is done: as §1, §2, §3, §4, §5
For test [19], the system named is blackgrass. Put plainly: postemergence herbicidal activity on blackgrass. The format is in vivo, Aloepecurus myosuroides. The settings on record: Alopecurus myosuroides, post-emergence, 0.3 Kg/Ha, after 12-17 days, read-out: POSTEMERGENCE HERBICIDAL ACTIVITY (% CONTROL) ALOMY. The procedure: as §1, §2, §3, §4, §5
Test [20] relates to blackgrass. Kind of test: preemergence herbicidal activity on blackgrass. In kind it is in vivo, Aloepecurus myosuroides. The settings on record: Alopecurus myosuroides, pre-emergence, 0.3 Kg/Ha, after 12-17 days, read-out: PREEMERGENCE HERBICIDAL ACTIVITY (% CONTROL) ALOMY. The procedure:
as §1, §2, §3, §4, §5

As for `Cn1nc(-c2cc(CC(Cl)C(C)(C)O)c(Cl)cc2F)c(Cl)c1OC(F)F` (stereo not drawn) [Compound 3], the activity at 300 g/ha turned out to be 100% in the test with cocklebur [1]; 40% in the test on corn [2]; 100% with chickweed [3]; 30% in the test on wheat [4]; 40% with wheat [5]; 100% with velvetleaf [6]. Besides, the activity at 300 g/ha with johnsongrass [7] was determined as 75%; with chickweed [8], 100%; with morningglory [9] it was 100%; in the test with soybean [10], 60%; in the test on green foxtail [11] it was 100%; with cocklebur [12] it was 100%. The activity at 300 g/ha worked out at 60% with johnsongrass [13]; 70% in the test with corn [14]; 95% with soybean [15]; 100% in the test with morningglory [16]; 100% in the test on velvetleaf [17]; 100% in the test with green foxtail [18].

On to `CC(=O)OC(C)(C)C(Cl)Cc1cc(-c2nn(C)c(OC(F)F)c2Cl)c(F)cc1Cl` (stereo not drawn) [Compound 18], for which the activity at 300 g/ha turned out to be 60% in the test on cocklebur [1]; 20% in the test with corn [2]; 100% with chickweed [3]; 20% in the test on wheat [4]; 40% in the test on wheat [5]; 100% in the test with velvetleaf [6]. The activity at 300 g/ha in the test on johnsongrass [7] came to 80%; in the test with chickweed [8] it was 100%; with morningglory [9] it was 100%; in the test with soybean [10] it was 70%; in the test with green foxtail [11], 100%; in the test on cocklebur [12], 90%. For the same molecule, the activity at 300 g/ha came out at 80% with johnsongrass [13]; 75% with corn [14]; 80% with soybean [15]; 100% in the test with morningglory [16]; 100% with velvetleaf [17]; 80% in the test with blackgrass [19]. In addition, in the test on green foxtail [18], the activity at 300 g/ha worked out at 100%.

In the case of `Cc1nn(-c2cc(CC(Cl)COC(=O)NC(C)C)c(Cl)cc2F)c(=O)n1C(F)F` (stereo not drawn) [Compound 34], the activity at 300 g/ha with corn [2] was determined as 70%; with chickweed [3] it was 75%; in the test with wheat [4], 50%; in the test on wheat [5] it was 50%; with velvetleaf [6] it was 100%; with johnsongrass [7], 100%. The activity at 300 g/ha in the test on chickweed [8] was 100%; with morningglory [9], 100%; in the test on soybean [10] it was 80%; with green foxtail [11], 100%; in the test with cocklebur [12], 100%; with johnsongrass [13], 95%. Moreover, the activity at 300 g/ha with corn [14] was determined as 85%; with soybean [15], 90%; with morningglory [16], 90%; in the test on velvetleaf [17] it was 100%; in the test with blackgrass [19] it was 65%; in the test on green foxtail [18], 100%. In addition, the activity at 300 g/ha with blackgrass [20] amounted to 60%.

For the molecule `Cc1nn(-c2cc(CC(Cl)COC(=O)NC3CCCCC3)c(Cl)cc2F)c(=O)n1C(F)F` (stereo not drawn) [Compound 35], the activity at 300 g/ha with corn [2] stood at 10%; in the test with chickweed [3] it was 30%; in the test with wheat [4], 20%; in the test with wheat [5], 25%; with velvetleaf [6], 100%; in the test on johnsongrass [7], 50%. The activity at 300 g/ha with chickweed [8] came to 100%; in the test on morningglory [9], 90%; with soybean [10] it was 30%; with green foxtail [11] it was 80%; in the test on cocklebur [12], 100%; in the test with johnsongrass [13] it was 60%. Further, the activity at 300 g/ha in the test with corn [14] stood at 70%; in the test on soybean [15] it was 80%; in the test with morningglory [16] it was 80%; in the test with velvetleaf [17] it was 100%; in the test with blackgrass [19], 30%; with green foxtail [18], 100%. Moreover, in the test on blackgrass [20], the activity at 300 g/ha turned out to be 30%.

Values taken from patent USH1923H, “Herbicidal (oxaalkyl) phenyl-substituted heterocycles” (FMC Corporation, priority 1998, dated 2000).
